Test results from US20260151383A1, “HETEROCYCLIC COMPOUNDS AND USES THEREOF” (KayoThera Inc., priority 2022, published 2026).

Tests used:
Assay type in all cases: biochemical
Conditions in all cases: recombinant enzyme, 20° C., activity level classes
[1] = target: T1, hALDH1a2 (Homo sapiens, UniProt O94788); test: Aldh1a2 enzyme inhibition assay (resorufin fluorescence), human enzyme
T1 construct: made in house; host or cells: E. coli BL21-DE3
T1 sequence (O94788 1-518): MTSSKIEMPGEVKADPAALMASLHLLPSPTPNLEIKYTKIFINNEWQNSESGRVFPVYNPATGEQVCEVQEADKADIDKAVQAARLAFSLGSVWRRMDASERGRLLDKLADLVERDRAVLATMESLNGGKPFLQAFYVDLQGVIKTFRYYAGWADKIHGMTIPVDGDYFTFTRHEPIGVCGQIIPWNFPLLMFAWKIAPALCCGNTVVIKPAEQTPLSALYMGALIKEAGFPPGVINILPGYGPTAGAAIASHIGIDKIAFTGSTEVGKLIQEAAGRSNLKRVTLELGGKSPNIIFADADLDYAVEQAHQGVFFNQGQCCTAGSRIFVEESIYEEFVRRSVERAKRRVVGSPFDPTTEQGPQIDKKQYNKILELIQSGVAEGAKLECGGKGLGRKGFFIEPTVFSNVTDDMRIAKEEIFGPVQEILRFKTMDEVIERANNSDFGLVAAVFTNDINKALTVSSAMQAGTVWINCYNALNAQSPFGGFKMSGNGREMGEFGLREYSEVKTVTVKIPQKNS
Text: (§1) Recombinant enzyme and inhibitor added immediately before assay. Reaction rate measured by resorufln fluorescence.

[2] = target: T2, mALDH1a2 (Mus musculus, UniProt Q62148); test: Aldh1a2 enzyme inhibition assay (resorufin fluorescence), mouse enzyme
T2 construct: made in house; host or cells: E. coli BL21-DE3
T2 sequence (Q62148 1-518): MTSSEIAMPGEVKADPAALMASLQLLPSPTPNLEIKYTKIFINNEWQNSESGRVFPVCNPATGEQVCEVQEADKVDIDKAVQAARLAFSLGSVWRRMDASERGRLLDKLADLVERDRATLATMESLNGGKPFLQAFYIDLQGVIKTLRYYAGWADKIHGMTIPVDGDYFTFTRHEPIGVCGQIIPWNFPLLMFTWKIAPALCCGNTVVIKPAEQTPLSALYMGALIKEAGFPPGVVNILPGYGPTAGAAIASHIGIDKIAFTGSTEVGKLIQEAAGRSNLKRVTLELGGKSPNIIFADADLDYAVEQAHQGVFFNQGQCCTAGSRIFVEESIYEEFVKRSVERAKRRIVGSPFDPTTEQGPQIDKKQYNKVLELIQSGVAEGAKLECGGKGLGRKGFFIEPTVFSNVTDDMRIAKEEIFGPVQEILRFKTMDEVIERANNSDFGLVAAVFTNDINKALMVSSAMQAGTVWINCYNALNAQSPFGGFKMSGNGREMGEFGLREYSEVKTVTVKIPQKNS
Text: as §1

[3] = target: T3, mALDH1a3 (Mus musculus, UniProt Q9JHW9); test: Aldh1a3 enzyme inhibition assay (resorufin fluorescence), mouse enzyme
T3 construct: made in house; host or cells: E. coli BL21-DE3
T3 sequence (Q9JHW9 1-512): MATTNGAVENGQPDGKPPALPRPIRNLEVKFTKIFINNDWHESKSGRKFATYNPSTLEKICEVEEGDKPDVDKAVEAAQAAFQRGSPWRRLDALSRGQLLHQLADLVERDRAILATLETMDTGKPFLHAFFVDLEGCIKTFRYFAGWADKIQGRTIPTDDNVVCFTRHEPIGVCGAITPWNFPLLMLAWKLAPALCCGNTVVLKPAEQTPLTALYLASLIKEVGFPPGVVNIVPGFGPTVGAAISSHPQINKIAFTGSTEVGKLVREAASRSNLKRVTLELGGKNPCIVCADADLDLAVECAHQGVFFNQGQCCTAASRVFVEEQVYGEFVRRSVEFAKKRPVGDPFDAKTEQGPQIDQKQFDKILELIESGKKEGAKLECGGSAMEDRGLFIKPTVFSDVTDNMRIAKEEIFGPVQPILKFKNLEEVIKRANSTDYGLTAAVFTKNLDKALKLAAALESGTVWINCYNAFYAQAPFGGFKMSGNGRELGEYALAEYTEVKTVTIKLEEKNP
Text: Recombinant enzyme and inhibitor added immediately before assay. Reaction rate measured by resorufin fluorescence.

[4] = target: T4, hALDH1a3 (Homo sapiens, UniProt P47895); test: Aldh1a3 enzyme inhibition assay (resorufin fluorescence), human enzyme
T4 construct: made in house; host or cells: E. coli BL21-DE3
T4 sequence (P47895 1-512): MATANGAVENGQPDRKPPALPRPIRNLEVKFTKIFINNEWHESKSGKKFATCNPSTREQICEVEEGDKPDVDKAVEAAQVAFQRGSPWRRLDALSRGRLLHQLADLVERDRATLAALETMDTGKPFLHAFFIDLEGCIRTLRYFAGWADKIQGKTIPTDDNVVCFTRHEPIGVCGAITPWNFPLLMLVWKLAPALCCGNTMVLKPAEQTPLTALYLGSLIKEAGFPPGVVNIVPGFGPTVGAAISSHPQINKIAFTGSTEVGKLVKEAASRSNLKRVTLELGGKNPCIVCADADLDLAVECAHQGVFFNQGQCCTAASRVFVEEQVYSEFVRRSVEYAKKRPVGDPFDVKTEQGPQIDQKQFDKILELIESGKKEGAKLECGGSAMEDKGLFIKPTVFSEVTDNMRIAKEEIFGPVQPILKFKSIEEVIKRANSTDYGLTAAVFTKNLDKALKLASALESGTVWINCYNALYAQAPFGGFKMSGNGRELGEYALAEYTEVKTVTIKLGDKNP

Cc1ccccc1-c1cnccc1C(=O)Nc1cc(C)c2c(c1)CCC(=O)N2 [Compound 15, N-(8-methyl-2-oxo-1,2,3,4-tetrahydroquinolin-6-yl)-3-(o-tolyl)isonicotinamide]
IC50 [1]: > 5000 nM
IC50 [2]: > 5000 nM
mAldh1a3 IC50 [3]: No activity
hAldh1a3 IC50 [4]: No activity

Cc1cc(NC(=O)c2ccncc2-c2ccc(O)cc2)cc2c1NC(=O)CC2 [Compound 19]
IC50 [1]: 1000 to 5000 nM
IC50 [2]: 1000 to 5000 nM
mAldh1a3 IC50 [3]: No activity
hAldh1a3 IC50 [4]: No activity

O=C1CCc2cc(NC(=O)c3ccncc3-c3ccccc3F)cc(Cl)c2N1 [Compound 26]
IC50 [1]: 100 to 250 nM
IC50 [2]: 100 to 250 nM
mAldh1a3 IC50 [3]: No activity
IC50 [4]: 1000 to 5000 nM

Cc1c(F)c(NC(=O)c2ncsc2CC(F)(F)F)cc2c1NC(=O)CC2 [Compound 72]
IC50 [1]: 100 to 250 nM
IC50 [2]: 250 to 1000 nM
IC50 [3]: 100 to 250 nM
IC50 [4]: 100 to 250 nM

Cc1cc(OCCNC(=O)c2cccc(F)c2)cc2c1NC(=O)CC2 [Compound 8, 3-fluoro-N-(2-((8-methyl-2-oxo-1,2,3,4-tetrahydroquinolin-6-yl)oxy)ethyl)benzamide]
hAldh1a2 IC50 [1]: No activity
mAldh1a2 IC50 [2]: No activity
mAldh1a3 IC50 [3]: No activity
hAldh1a3 IC50 [4]: No activity

Cc1cc(NC(=O)c2ncsc2CC(F)(F)F)cc2c1NC(=O)C1CC21 (stereo not shown) [Compound 40]
IC50 [1]: < 100 nM
IC50 [2]: < 100 nM
IC50 [3]: < 100 nM
IC50 [4]: < 100 nM

Cc1cc(NC(=O)c2ccncc2-c2ccccc2)cc2c1NC(=O)CC2 [Compound 1, N-(8-methyl-2-oxo-1,2,3,4-tetrahydroquinolin-6-yl)-3-phenylisonicotinamide]
IC50 [1]: 100 to 250 nM
IC50 [2]: 100 to 250 nM
IC50 [3]: 1000 to 5000 nM
IC50 [4]: 1000 to 5000 nM

Cc1cc(NC(=O)c2ccncc2CC2(C)CC2)cc2c1NC(=O)CC2 [Compound 27]
IC50 [1]: 100 to 250 nM
IC50 [2]: 100 to 250 nM
IC50 [3]: 250 to 1000 nM
IC50 [4]: < 100 nM

O=C(Nc1cc(Cl)c2c(c1)C1CC1C(=O)N2)c1scnc1CC(F)(F)F (stereo not shown) [Compound 42]
IC50 [1]: 250 to 1000 nM
IC50 [2]: 1000 to 5000 nM
IC50 [3]: < 100 nM
IC50 [4]: 100 to 250 nM

CCc1ncsc1C(=O)Nc1cc(Cl)c2c(c1)C1CC1C(=O)N2 (stereo not shown) [Compound 38]
IC50 [1]: 100 to 250 nM
IC50 [2]: 100 to 250 nM
IC50 [3]: < 100 nM
IC50 [4]: 100 to 250 nM

O=C1CCc2cc(NC(=O)c3ccncc3-c3ccccc3)ccc2N1 [Compound 21]
IC50 [1]: 1000 to 5000 nM
IC50 [2]: 1000 to 5000 nM
mAldh1a3 IC50 [3]: No activity
IC50 [4]: > 5000 nM

Cc1cc(NC(=O)c2ccncc2CC(F)(F)F)cc2c1NC(=O)CS2 [Compound 7]
IC50 [1]: 250 to 1000 nM
IC50 [2]: 250 to 1000 nM
IC50 [3]: 100 to 250 nM
IC50 [4]: 100 to 250 nM

O=C1CCc2cc(NC(=O)c3scnc3CC(F)(F)F)cc(Cl)c2N1 [Compound 35]
IC50 [1]: 250 to 1000 nM
IC50 [2]: 250 to 1000 nM
IC50 [3]: < 100 nM
IC50 [4]: 100 to 250 nM

CCc1ncoc1C(=O)Nc1cc(C)c2c(c1)CCC(=O)N2 [Compound 57]
IC50 [1]: 1000 to 5000 nM
IC50 [2]: 1000 to 5000 nM
IC50 [3]: 100 to 250 nM
IC50 [4]: 250 to 1000 nM

Cc1cc(OCCN(C)C(=O)c2cccc(F)c2)cc2c1NC(=O)CC2 [Compound 9, 3-fluoro-N-methyl-N-(2-((8-methyl-2-oxo-1,2,3,4-tetrahydroquinolin-6-yl)oxy)ethyl)benzamide]
IC50 [1]: 1000 to 5000 nM
IC50 [2]: 1000 to 5000 nM
IC50 [3]: > 5000 nM
IC50 [4]: > 5000 nM

Cc1cccc(-c2cnccc2C(=O)Nc2cc(C)c3c(c2)CCC(=O)N3)c1 [Compound 11, N-(8-methyl-2-oxo-1,2,3,4-tetrahydroquinolin-6-yl)-3-(m-tolyl)isonicotinamide]
IC50 [1]: 1000 to 5000 nM
IC50 [2]: 1000 to 5000 nM
mAldh1a3 IC50 [3]: No activity
hAldh1a3 IC50 [4]: No activity
